These results are taken from paper PMC6218957, “VS-4718 Antagonizes Multidrug Resistance in ABCB1- and ABCG2-Overexpressing Cancer Cells by Inhibiting the Efflux Function of ABC Transporters” (Frontiers in Pharmacology, 2018).

Data set [1] concerns the target T1, ABCG2 (Homo sapiens, UniProt Q9UNQ0).
T1 sequence (Q9UNQ0 1-655): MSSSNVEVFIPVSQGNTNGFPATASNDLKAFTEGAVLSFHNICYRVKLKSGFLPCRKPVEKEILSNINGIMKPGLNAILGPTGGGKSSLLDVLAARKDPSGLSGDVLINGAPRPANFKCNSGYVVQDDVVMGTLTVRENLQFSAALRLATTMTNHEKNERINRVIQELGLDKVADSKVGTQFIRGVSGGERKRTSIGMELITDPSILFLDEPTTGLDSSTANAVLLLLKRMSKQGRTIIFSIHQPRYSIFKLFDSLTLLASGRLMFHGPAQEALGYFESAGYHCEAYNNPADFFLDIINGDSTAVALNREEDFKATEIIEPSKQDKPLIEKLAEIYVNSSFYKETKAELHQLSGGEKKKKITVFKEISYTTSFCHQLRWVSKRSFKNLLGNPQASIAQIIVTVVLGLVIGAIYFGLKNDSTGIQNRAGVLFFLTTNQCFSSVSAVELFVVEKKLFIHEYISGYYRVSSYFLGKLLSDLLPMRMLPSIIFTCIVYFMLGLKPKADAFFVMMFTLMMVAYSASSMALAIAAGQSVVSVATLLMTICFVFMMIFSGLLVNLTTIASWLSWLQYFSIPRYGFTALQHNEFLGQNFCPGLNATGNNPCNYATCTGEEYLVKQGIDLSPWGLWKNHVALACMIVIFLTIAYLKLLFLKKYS
The data set can be described thus: biochemical. More on the design: cell membranes that overexpressed ABCG2.

Data set [2] addresses T2, ABCB1 (Homo sapiens, UniProt P08183). The experiment in a line: ATPase stimulation in ABCB1-overexpressing membranes; also [3H]-paclitaxel accumulation/efflux inhibition in KB-C2 cells. It counts as biochemical. Further details: cell membranes that overexpressed ABCB1.
Data set [3] concerns the target T1, ABCG2.
Data set [4] concerns the target T2, ABCB1.

T2 sequence (P08183 whole entry): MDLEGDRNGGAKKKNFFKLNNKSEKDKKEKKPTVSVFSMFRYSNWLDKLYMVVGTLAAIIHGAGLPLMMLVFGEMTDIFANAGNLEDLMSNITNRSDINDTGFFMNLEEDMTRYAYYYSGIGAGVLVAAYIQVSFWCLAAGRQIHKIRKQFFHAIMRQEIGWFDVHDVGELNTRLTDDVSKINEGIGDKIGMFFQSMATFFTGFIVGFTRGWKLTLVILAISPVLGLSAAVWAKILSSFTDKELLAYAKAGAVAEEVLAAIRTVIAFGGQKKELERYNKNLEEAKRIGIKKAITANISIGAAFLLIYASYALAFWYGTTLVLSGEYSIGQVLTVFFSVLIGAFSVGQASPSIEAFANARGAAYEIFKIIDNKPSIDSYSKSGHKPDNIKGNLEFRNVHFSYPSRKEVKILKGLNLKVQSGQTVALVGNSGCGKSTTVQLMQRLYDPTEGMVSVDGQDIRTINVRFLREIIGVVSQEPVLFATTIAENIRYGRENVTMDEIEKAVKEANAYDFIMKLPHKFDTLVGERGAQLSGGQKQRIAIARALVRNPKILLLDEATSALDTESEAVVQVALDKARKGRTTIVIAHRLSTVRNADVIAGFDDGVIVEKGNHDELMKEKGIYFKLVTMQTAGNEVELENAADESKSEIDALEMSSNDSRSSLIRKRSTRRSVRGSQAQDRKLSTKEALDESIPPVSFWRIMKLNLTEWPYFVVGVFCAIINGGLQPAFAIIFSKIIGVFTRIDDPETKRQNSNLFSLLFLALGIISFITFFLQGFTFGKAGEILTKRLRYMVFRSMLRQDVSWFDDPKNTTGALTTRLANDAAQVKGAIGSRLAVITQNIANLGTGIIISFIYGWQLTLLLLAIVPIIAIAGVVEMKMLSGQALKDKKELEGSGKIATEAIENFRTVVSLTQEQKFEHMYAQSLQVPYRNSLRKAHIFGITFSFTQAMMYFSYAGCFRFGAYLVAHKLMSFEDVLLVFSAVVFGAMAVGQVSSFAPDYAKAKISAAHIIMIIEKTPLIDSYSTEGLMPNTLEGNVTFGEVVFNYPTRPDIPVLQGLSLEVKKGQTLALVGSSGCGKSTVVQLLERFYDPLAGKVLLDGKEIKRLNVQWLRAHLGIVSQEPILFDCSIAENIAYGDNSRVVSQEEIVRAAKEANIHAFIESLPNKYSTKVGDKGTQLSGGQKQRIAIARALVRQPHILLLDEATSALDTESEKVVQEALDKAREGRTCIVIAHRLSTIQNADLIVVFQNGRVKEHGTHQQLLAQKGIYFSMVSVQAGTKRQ

The EC50 is the concentration at which the effect is half-maximal. A high value points to lower potency in that assay. With `CNC(=O)c1ccccc1Nc1cc(Nc2ccc(N3CCOCC3)cc2OC)ncc1C(F)(F)F` [VS-4718], the EC50 was determined as 9.6 µM in data set [1] and 1720 nM in data set [2].

On to `O=C1c2c(O)ccc(O)c2C(=O)c2c(NCCNCCO)ccc(NCCNCCO)c21` [Mitoxantrone], for which, in data set [3], the “radiolabelled efflux/accumulation in ABCG2-overexpressing NCI-H460/MX20 vs paren” value is “[^3H]-mitoxantrone efflux in ABCG2-overexpressing NCI-H460/MX20 cells”.

As to `CC(=O)O[C@H]1C(=O)[C@@]2(C)[C@H]([C@H](OC(=O)c3ccccc3)[C@]3(O)C[C@H](OC(=O)[C@H](O)[C@@H](NC(=O)c4ccccc4)c4ccccc4)C(C)=C1C3(C)C)[C@]1(OC(C)=O)CO[C@@H]1C[C@@H]2O` [Paclitaxel], in data set [4], the “radiolabelled efflux/accumulation in ABCB1-overexpressing KB-C2 vs parental KB-3” value is “VS-4718 significantly reduced the efflux of [^3H]-paclitaxel in ABCB1-overexpressing KB-C2 cells”.
